Results from the supplement of paper PMC10627819.

How the values were obtained:
B. subtilis 168 [1] = assay: fitness (endpoint OD595 vs no drug) (fraction); higher = more growth
Method in brief: (§1)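 Growth medium was TSB, LB Lennox or CY, and plates were kept at 37 °C. Inoculation was at OD595 0.01 in 384-well plates, at 30 µl per well or 55 µl for S. pneumoniae. OD595 was monitored every 30 min for 14 h and background-subtracted using the first reading. Fitness is the optical density on entering stationary phase divided by the robust mean of no-drug controls, with values capped at 1.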

S. aureus Newman [2] = assay: as above
Method in brief: as §1

S. pneumoniae D39V [3] = assay: as above
Method in brief: as §1

B. subtilis 168 [4] = assay: Bliss interaction score (quartile over a dose matrix) (fitness difference); higher = more antagonism (negative = synergy)
Method in brief: (§2)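 Quartiles summarise the Bliss score over technical, biological and donor/recipient replicates, where the score is observed minus expected fitness under a product model. Expected fitness uses single-drug values inferred from combination data. Fitness is OD595 at entry into stationary phase over the plate's robust no-drug mean, capped at 1.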

S. aureus DSM 20231 = assay: as above
Method in brief: as §2

S. aureus Newman [5] = assay: as above
Method in brief: as §2

S. pneumoniae D39V [6] = assay: as above
Method in brief: as §2
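For Bliss interaction score (quartile over a dose matrix) in this document: first quartile when negative (synergy) and third quartile when positive (antagonism).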

CC1=C(C(=O)O)N2C(=O)[C@@H](NC(=O)[C@H](N)c3ccccc3)[C@H]2SC1 [Cephalexin] + CC1=C\[C@@H](O)CC(=O)Cc2nc(co2)C(=O)N2CCC=C2C(=O)O[C@H](C(C)C)[C@H](C)/C=C/C(=O)NC\C=C\1 [Virginiamycin M1]
fitness
Conditions	first compound 0.125 µg/mL	first compound 0.25 µg/mL	first compound 0.5 µg/mL	first compound 1 µg/mL	first compound 4 µg/mL
B. subtilis 168 [1], partner 0.0625 µg/mL	0.966	0.944	0.955	–	–
B. subtilis 168 [1], partner 0.125 µg/mL	0.944	0.926	0.99	–	–
B. subtilis 168 [1], partner 0.25 µg/mL	0.983	0.911	0.989	–	–
S. aureus Newman [2], partner 0.0625 µg/mL	–	≥ 1	0.994	≥ 1	–
S. aureus Newman [2], partner 0.125 µg/mL	–	≥ 1	≥ 1	≥ 1	–
S. aureus Newman [2], partner 0.25 µg/mL	–	≥ 1	≥ 1	≥ 1	–
S. pneumoniae D39V [3], partner 2 µg/mL	–	–	–	0.663	0.0521

fitness, one replicate
Conditions	first compound 0.125 µg/mL	first compound 0.25 µg/mL	first compound 0.5 µg/mL	first compound 1 µg/mL	first compound 2 µg/mL	first compound 4 µg/mL
S. aureus Newman [2], partner 0.5 µg/mL	–	–	0.847	0.951	0.986	–
S. aureus Newman [2], partner 1 µg/mL	–	–	≥ 1	≥ 1	≥ 1	–
S. aureus Newman [2], partner 2 µg/mL	–	–	0.936	0.923	0.978	–
S. pneumoniae D39V [3], partner 0.15 µg/mL	–	–	–	0.934	0.646	0.0743
S. pneumoniae D39V [3], partner 0.3 µg/mL	–	–	–	0.885	0.628	0.0023
S. pneumoniae D39V [3], partner 0.5 µg/mL	0.967	0.964	≥ 1	0.562	0.316	0.338
S. pneumoniae D39V [3], partner 1 µg/mL	0.966	0.991	≥ 1	0.504	0.0366	0.0659
S. pneumoniae D39V [3], partner 2 µg/mL	0.954	≥ 1	≥ 1	–	–	–

Conditions	Bliss interaction score
B. subtilis 168 [4]	0.0598
S. aureus DSM 20231	0.0651
S. aureus Newman [5]	0.023
S. pneumoniae D39V [6]	0.16

CC1=C(C(=O)O)N2C(=O)[C@@H](NC(=O)[C@H](N)c3ccccc3)[C@H]2SC1 [Cephalexin] + CN[C@H](CC(C)C)C(=O)N[C@H]1C(=O)N[C@@H](CC(N)=O)C(=O)N[C@H]2C(=O)N[C@H]3C(=O)N[C@H](C(=O)N[C@H](C(=O)O)c4cc(O)cc(O)c4-c4cc3ccc4O)[C@H](O)c3ccc(c(Cl)c3)Oc3cc2cc(c3O[C@@H]2O[C@H](CO)[C@@H](O)[C@H](O)[C@H]2O[C@H]2C[C@](C)(N)[C@H](O)[C@H](C)O2)Oc2ccc(cc2Cl)[C@H]1O [Vancomycin]
fitness
Conditions	first compound 0.25 µg/mL	first compound 0.5 µg/mL	first compound 1 µg/mL	first compound 2 µg/mL	first compound 4 µg/mL
S. aureus Newman [2], partner 0.1875 µg/mL	≥ 1	0.997	≥ 1	–	–
S. aureus Newman [2], partner 0.375 µg/mL	0.997	≥ 1	≥ 1	–	–
S. aureus Newman [2], partner 0.75 µg/mL	≥ 1	≥ 1	≥ 1	–	–
S. pneumoniae D39V [3], partner 0.03125 µg/mL	–	–	–	0.0634	0.0468
S. pneumoniae D39V [3], partner 0.0625 µg/mL	–	–	–	0.0312	0.0227
S. pneumoniae D39V [3], partner 0.125 µg/mL	–	–	0.282	0.0467	0.0467

fitness, S. pneumoniae D39V [3], one replicate
Conditions	first compound 0.125 µg/mL	first compound 0.25 µg/mL	first compound 0.5 µg/mL
partner 0.125 µg/mL	0.824	0.936	≥ 1
partner 0.25 µg/mL	0.165	0.383	0.428
partner 0.5 µg/mL	0.0735	0.0702	0.105

Conditions	Bliss interaction score
B. subtilis 168 [4]	-0.0548
S. aureus DSM 20231	0.0385
S. aureus Newman [5]	0.0402
S. pneumoniae D39V [6]	-0.207

CC1=C(C(=O)O)N2C(=O)[C@@H](NC(=O)[C@H](N)c3ccccc3)[C@H]2SC1 [Cephalexin] + Cn1nnc(-c2ccc(-c3ccc(N4C[C@H](CO)OC4=O)cc3F)cn2)n1 [Tedizolid]
fitness
Conditions	first compound 0.25 µg/mL	first compound 0.5 µg/mL	first compound 1 µg/mL	first compound 2 µg/mL	first compound 4 µg/mL
S. aureus Newman [2], partner 0.0625 µg/mL	0.965	0.999	0.967	–	–
S. aureus Newman [2], partner 0.125 µg/mL	0.914	0.901	0.924	–	–
S. pneumoniae D39V [3], partner 0.03125 µg/mL	–	–	0.919	0.391	0.0118
S. pneumoniae D39V [3], partner 0.0625 µg/mL	–	–	0.928	0.53	0.113
S. pneumoniae D39V [3], partner 0.125 µg/mL	–	–	0.778	0.529	0.115

fitness, S. pneumoniae D39V [3], one replicate
Conditions	first compound 0.125 µg/mL	first compound 0.25 µg/mL	first compound 0.5 µg/mL
partner 0.125 µg/mL	0.857	0.887	0.943
partner 0.25 µg/mL	0.762	0.775	0.793
partner 0.5 µg/mL	0.282	0.332	0.359

Conditions	Bliss interaction score
B. subtilis 168 [4]	-0.0471
S. aureus DSM 20231	-0.121
S. aureus Newman [5]	0.0857
S. pneumoniae D39V [6]	0.304
